Data from patent publication US20230340012A1, “NATURAL AND SYNTHETIC COMPOUNDS FOR TREATING CANCER AND OTHER DISEASES” (PACIFIC ARROW LIMITED, priority 2009, published 2023).
Converted amounts (≈) assume the structure as drawn. “And” between values parts separate entries of the source, which are not always exact repeats. Equal values may be shown once.

Legend:
Erythrocytes (RBC) = test: The haemolytic assay
Experimental: Erythrocytes (RBC) were isolated from human blood (EDTA whole blood, collected randomly). 50 ul of the 10% RBC suspension (in PBS) was added to 2 ml of sample solutions (concentration range from 0.1 ug/ml to 400 ug/ml) in PBS. The mixture was vortexed briefly and sat for 60 min at room temperature. The mixture was spun at 3 K for 10 min and the relative amounts of lysed hemoglobin in the supernatant were measured at 540 nm.

cancer cells = test: MTT cytotoxic assay of esterification products (Cytotoxicity activity); assay type: cell-based, human
Method in brief: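 Cytotoxicity was read by MTT (Carmichael method, modified), with cells seeded 24 h ahead of treatment. Sixteen human cancer lines spanning bone, lung, bladder, ovary, colon, pancreas, prostate, skin, mouth, kidney, breast, liver, brain, leukemia and cervix were used. Test samples were acyl chloride esterification products of triterpenes, as mixtures or HPLC-purified compounds.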

WI38 = test: MTT assay, normal human lung fibroblast (WI38); assay type: cell-based
Experimental: Method: A. Cells • -WI38 is a Normal Lung fibroblast. Cells were grown in MEM medium supplemented with 10% FCS, antibiotics and glutamine. 20 K cells were seeded per well (96-welled plate) for one day before drug-treatment • -ES2 is an Ovary Clear cells carcinoma. Cells were grown in RPMI-1640 medium supplemented with 10% FCS, antibiotics and glutamine. 10 K cells were seeded per well (96-welled plate) for one day before drug-treatment.
B. Drug treatment: • -Drug: Tig-S. stored as 1000x stock solution in DMSO. • -Drug concentration used: from 0.15 - 20 ug/ml. • -Drug-treatment was carried out for 2 days (ES2) or 6 days (WI38). For the 6 days incubation, cells were fed with fresh medium (with drug) on day 3 and 5.
C. At the end of the drug-treatment, cytotoxic test was performed with MTT assay.

[1] = system: DR5 (TNFRSF10B) in ES2 cells; test: Induction of DR5 in ES2 cells, Western blot; assay type: cell-based, human; settings: experiment 1, column head R 7.5, 2 days
Y79 (retinoblastoma) = test: Inhibition of eye cancer cells Y79 (retinoblastoma), MTT; assay type: cell-based, human; settings: 2 days
Experimental: Cells: Human Eye cancer cells Y79 (retinoblastoma) are cultured in RPMI1640 medium supplemented with 20% FCS, glutamine and antibiotics.
Starting cells concentration: 400 K per ml in a 24-well plate.
Drug: Tig-S and Tig-R (100× stock solution in 10%DMSO-90% RPMI-1640).
Drug-treatment: Cells were cultured with or without drug (DMSO control) for 2 days. After Drug-treatment, the quantity of live cells is determined with MTT assay*. With this method, the percentage of cell growth with drugs was determined by comparing to those of no-drug (DMSO) control.
MTT assay. To measure the amount of live cells, MTT (3-[4,5-Dimethylthiazol-2-yl]-2,5-diphenyl-tetrazolium bromide) (0.5 mg/ml) was added to cultures and incubated for an hour. Cells were then collected by centrifugation. The formation of formazan (proportion to live cells activity) in the cells was dissolved with DMSO and the O.D. at 490 nm was measured by an ELISA reader. The MTT level of cells before drug-treatment (T0) and after the drug-treatment (TD) was measured. The % cell-growth (%G) is calculated as: %G = (TD-T0) / (TC-T0) × 100 where TC or TD represent O.D. readings of control or drug-treated cells.
When T0 > TD, then the negative growth (cytotoxicity) is expressed as - % of the control and is calculated as: - %G = (TD-T0) / T0) × 100.

[2] = system: DR5 (TNFRSF10B) in U2OS cells; test: DR5 Western blot, U2OS cells; assay type: cell-based, human
[3] = esterification products isolated with HPLC, graded strong / moderate / weak
[4] = U2OS cells, Tig-R, single experiments 1-2

Compound | hemolytic activity (Erythrocytes (RBC); in words, no concentration given) | hemolytic activity (Erythrocytes (RBC); up to 20 ug/ml) | Cytotoxicity activity (cancer cells; [3]) | IC50 in normal human fibroblast cells (WI38) (WI38; MTT) [µg/mL] | DR5 Western blot band intensity (Image J) [1] | DR5 band intensity, % of DMSO [1] [%] | IC50, eye cancer Y79 retinoblastoma (Y79 (retinoblastoma)) [µg/mL] | DR5 band intensity, % of DMSO, Average (%) ([2]; U2OS cells, Tig-R, average of 2 experiments) | DR5 Western blot band intensity (Image J) [2, 4] | DR5 band intensity, % of DMSO [2, 4] | increase of DR5 over DMSO control cells ([2]; U2OS, Tig-R treatment) [%] | Cytotoxicity activity (cancer cells; esterification products of E4A—Tig—N with senecioyl chloride) | IC50, WI38 cells (WI38; 6 days drug treatment, MTT) [µg/mL] | % of the control cell growth, WI38 (WI38; at 10 ug/ml) | MTT OD as % of the original value, WI38 (WI38; at 20 ug/ml) | cell loss or death, WI38 (WI38; at 20 ug/ml) | cells died, WI38 (WI38; with 10 ug/ml) [%]
24,28-O-Tigloyl-3β,16α, 21β, 22a, 24β, 28-hexahydroxyolean-12-ene [Tig-R] | no hemolytic activity | do not have hemolytic activity | strong | 10 to 15 | 29902 | 157 | 7.5 | 206 | 18269 and 16969 | 209% and 203% | 106 | – | – | – | – | – | –
CC=C(C)C(=O)OCC1(C)C(O)CCC2(C)C1CCC1(C)C2CC=C2C3CC(C)(C)C(O)C(O)C3(CO)C(O)CC21C (centres unmarked) [Tig-N] | – | do not have hemolytic activity | moderate | – | – | – | – | – | – | – | – | moderate | – | – | – | – | –
CC=C(C)C(=O)OCC1(C)C(O)CCC2(C)C1CCC1(C)C2CC=C2C3CC(C)(C)C(OC(=O)C(C)=CC)C(O)C3(CO)C(O)CC21C (centres unmarked) [Tig-S] | – | – | – | – | – | – | 0.1 (≈ 0.149 µM) | – | – | – | – | – | 1.5 (≈ 2.24 µM) | about 55% | about 90% | about 10% | 10
